Laboratory results published in patent publication US20260250289A1, “BICYCLIC HETEROCYCLES AND THEIR USE AS WRN INHIBITORS” (Novartis AG, priority 2022, published 2026).

Key:
[1] = target: T1, WRN helicase (aa N517-P1238) (Homo sapiens, UniProt Q14191); test: WRN ATPase assay (DNA dependent ATP hydrolysis, ADP-Glo); type: biochemical; settings: 3 hours pre-incubation, 300 micromolar ATP, FLAP26 DNA; geometric mean of at least 2
T1 construct: The core helicase motif of the WRN protein (aa N517-P1238) was produced for this assay; His (N); ZZ (N); 3C protease cleavage site (N); made in house; host or cells: Sf21 insect cells (baculovirus; virus and BIICs made in SF9)
T1 sequence (Q14191 517-1238): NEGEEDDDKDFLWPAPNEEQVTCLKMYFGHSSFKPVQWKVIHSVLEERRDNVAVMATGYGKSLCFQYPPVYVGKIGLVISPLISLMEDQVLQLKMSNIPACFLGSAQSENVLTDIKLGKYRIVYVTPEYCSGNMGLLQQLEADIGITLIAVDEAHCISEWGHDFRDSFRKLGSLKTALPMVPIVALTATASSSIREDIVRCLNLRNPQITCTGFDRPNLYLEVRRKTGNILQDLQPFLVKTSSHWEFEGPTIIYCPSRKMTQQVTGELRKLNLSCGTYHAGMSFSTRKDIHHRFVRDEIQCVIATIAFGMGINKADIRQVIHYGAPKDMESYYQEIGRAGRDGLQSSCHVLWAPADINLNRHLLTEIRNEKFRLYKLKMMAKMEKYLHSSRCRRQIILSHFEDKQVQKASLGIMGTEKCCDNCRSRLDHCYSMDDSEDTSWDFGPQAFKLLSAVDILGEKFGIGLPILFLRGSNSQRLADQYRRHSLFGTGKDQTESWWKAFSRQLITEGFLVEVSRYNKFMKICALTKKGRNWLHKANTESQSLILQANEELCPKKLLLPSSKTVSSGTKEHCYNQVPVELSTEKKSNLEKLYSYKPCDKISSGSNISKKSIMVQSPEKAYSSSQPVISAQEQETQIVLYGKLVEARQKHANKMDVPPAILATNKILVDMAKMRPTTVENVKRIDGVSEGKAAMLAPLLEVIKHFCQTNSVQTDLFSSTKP
From the text: An ATPase assay was set up to measure the DNA dependent ATP hydrolysis activity of WRN helicase. This assay was used also to assess the inhibition properties of compounds of the invention on DNA dependent WRN ATPase activity.
The core helicase motif of the WRN protein (aa N517-P1238) was produced for this assay (protein production as described above). […] The ADP-Glo assay kit (Promega, Madison, WI) allowing the quantification of ADP produced in ATP hydrolysis reactions was used for setting up this assay.
Time course experiments were first performed in order to determine the best enzymatic assay conditions (including buffer conditions, reaction time and concentrations of protein, ATP and DNA substrates). A typical reaction consists of 10 nM WRN protein, 0.2 nM FLAP26, and 300 micromolar ATP in the following assay buffer: 30 mM Tris pH7.5, 2 mM MgCl2, 0.02% BSA, 50 mM NaCl, 0.1% pluronic F127 prepared in DNAse free water.
To evaluate the inhibition properties of compounds of the invention, serial dilutions were prepared in DMSO (10 half log dilutions from a 10 mM DMSO solution). […] The reaction was stopped with the addition of 5 microliters of the first ADP-Glo reagent and incubated for one hour to remove the excess amount of ATP. Afterwards, 10 microliters of ATP detection reagent was added and incubated for an additional hour before reading. Luminescence output was recorded using Tecan 1000 reader, with 5 minutes delay before reading. Each concentration of compound was tested in duplicates in the assay plate.
Following normalization of activity values for the wells to % inhibition (% inhibition=[(high control-sample)/(high control-low control)]×100), IC50 fitting was carried out from the duplicate determinations present on each plate according to [4]. Data analysis can also be carried out using commercially available software designed to derive IC50 values using 4-parameter fits (e.g. GraphPad Prism, XL fit). The reported IC50 values are the geometrical means of at least 2 independent replicates.

DLD1-WRN-KO cells = test: Proliferation assay DLD1-WRN-KO (CellTiterGlo, off-target effects); type: cell-based; settings: 96 hours, geometric mean of at least 2
Protocol: The WRN-knockdown insensitive colon carcinoma cell line DLD-1 (RRID: CVCL_0248) was obtained from the Korean Cell Line Bank (KCLB), and used to generate a derivative in which the endogenous WRN gene copies were knocked out by CRISPR-mediated editing using standard CRISPR methods. The resulting cell line, DLD1-WRN-KO, was used to assess potential off-target compound effects. […]
Three replicate plates were prepared for each compound treatment condition. In addition, one plate (termed “day 0”) was prepared to quantify the number of viable cells at the time of compound addition. Following overnight incubation at 37° C. in a humidified 5% CO2 atmosphere, eight 3-fold serial dilutions of a given compound stock (obtained at a concentration of 10 mM in DMSO and stored at 4° C.) were dispensed directly into each of the triplicate assay plates using a HP 300D non-contact Digital Dispenser (TECAN). The final concentration of DMSO was normalized to 0.1% in all wells. 96 hours after compound addition, cellular ATP levels as a surrogate for cell viability was assessed following addition of 50 microliters CellTiterGlo (Promega Cat #G7573) reagent and luminescence quantification on a MPLEX multi-mode plate-reader (TECAN) following a 10 minute incubation at room temperature. The number of viable cells in the “day 0” plate were quantified identically on the day of compound addition.
For data analysis, the assay background signal that was determined in wells containing medium, but no cells, was subtracted from all other data points prior to further calculations. The extent of growth inhibition and potential cell kill was assessed by comparing the ATP levels (measured using CellTiterGlo, Promega) in compound-treated cells with those present at the time of compound addition. […] 100%, 0% and −100% signify absence of growth inhibition, growth stasis, and complete cell kill, respectively. Compound concentrations leading to half-maximal growth inhibition (GI50) and residual cell viability at the highest tested compound concentration (Data (cmax), expressed in percent) were routinely calculated. Data analysis can also be carried out using commercially available software designed to derive IC50 values using 4-parameter fits (e.g. GraphPad Prism, XL fit). The reported GI50 values are the geometrical means of at least 2 independent replicates.

Structure (SMILES) | IC50 [1] [µM] | GI50 (DLD1-WRN-KO cells) [µM]
CC(=O)N1CCN(c2nc3n(CC(=O)Nc4ccc(Cl)cc4)c(C)c(N4CCN(C(=O)c5nc[nH]c5C#N)CC4)c(=O)n3n2)CC1 [Example 7, 2-(2-(4-acetylpiperazin-1-yl)-6-(4-(5-cyano-1H-imidazole-4-carbonyl)piperazin-1-yl)-5-methyl-7-oxo-[1,2,4]triazolo[1,5-a]pyrimidin-4(7H)-yl)-N-(4-chlorophenyl)acetamide] | 0.04 | > 10
CC(=O)N1CCN(c2c(C)n(CC(=O)Nc3ccc(Cl)c(Cl)c3)c3nc(C4=CCN(C(=O)OC(C)(C)C)CC4)nn3c2=O)CC1 [Example 75, tert-butyl 4-(6-(4-acetylpiperazin-1-yl)-4-(2-((3,4-dichlorophenyl)amino)-2-oxoethyl)-5-methyl-7-oxo-4,7-dihydro-[1,2,4]triazolo[1,5-a]pyrimidin-2-yl)-5,6-dihydropyridine-1(2H)-carboxylate] | 0.2 | 0.9
CCOC(=O)C#Cc1nc2n(CC(=O)Nc3ccc(C(F)(F)F)cc3)c(C)c(N3CCN(C(C)=O)CC3)c(=O)n2n1 [Example 116, ethyl 3-(6-(4-acetylpiperazin-1-yl)-5-methyl-7-oxo-4-(2-oxo-2-((4-(trifluoromethyl)phenyl)amino)ethyl)-4,7-dihydro-[1,2,4]triazolo[1,5-a]pyrimidin-2-yl)propiolate] | 0.5 | 5
COc1cc(F)cc(C(=O)N2CCN(c3c(C)n(CC(=O)Nc4ccc(C(F)(F)F)cc4)c4nc(C5=CCOCC5)nn4c3=O)CC2)c1N [Example 153, 2-(6-(4-(2-amino-5-fluoro-3-methoxybenzoyl)piperazin-1-yl)-2-(3,6-dihydro-2H-pyran-4-yl)-5-methyl-7-oxo-[1,2,4]triazolo[1,5-a]pyrimidin-4(7H)-yl)-N-(4-(trifluoromethyl)phenyl)acetamide] | 0.1 | 5
CC(=O)N1CCN(c2c(C)n(CC(=O)Nc3ccc(C(F)(F)F)cc3)c3nc(N4CCCCC4)nn3c2=O)CC1 [Example 111, 2-(6-(4-acetylpiperazin-1-yl)-5-methyl-7-oxo-2-(piperidin-1-yl)-[1,2,4]triazolo[1,5-a]pyrimidin-4(7H)-yl)-N-(4-(trifluoromethyl)phenyl)acetamide] | 0.2 | > 10
CC(=O)N1CCN(c2nc3n(CC(=O)Nc4ccc(Cl)cc4)c(C)c(N4CCN(C(=O)c5cnon5)CC4)c(=O)n3n2)CC1 [Example 9, 2-(6-(4-(1,2,5-oxadiazole-3-carbonyl)piperazin-1-yl)-2-(4-acetylpiperazin-1-yl)-5-methyl-7-oxo-[1,2,4]triazolo[1,5-a]pyrimidin-4(7H)-yl)-N-(4-chlorophenyl)acetamide] | 0.08 | > 10
CC(=O)N1CCN(c2c(C)n(CC(=O)Nc3ccc(Cl)c(Cl)c3)c3nc(-c4ccc(CN(C)C(=O)CCN=[N+]=[N-])cc4)nn3c2=O)CC1 [Example 86, N-(4-(6-(4-acetylpiperazin-1-yl)-4-(2-((3,4-dichlorophenyl)amino)-2-oxoethyl)-5-methyl-7-oxo-4,7-dihydro-[1,2,4]triazolo[1,5-a]pyrimidin-2-yl)benzyl)-3-azido-N-methylpropanamide] | 0.07 | > 10
Cc1c(N2CCN(C(=O)c3n[nH]c4ccccc34)CC2)c(=O)n2nc(C3=CCOCC3)nc2n1CC(=O)Nc1ccc(C(F)(F)F)cc1 [Example 154, 2-(6-(4-(1H-indazole-3-carbonyl)piperazin-1-yl)-2-(3,6-dihydro-2H-pyran-4-yl)-5-methyl-7-oxo-[1,2,4]triazolo[1,5-a]pyrimidin-4(7H)-yl)-N-(4-(trifluoromethyl)phenyl)acetamide] | 0.1 | 8
CC(=O)N1CCN(c2nc3n(CC(=O)Nc4ccc(Cl)cc4)c(C)c(N4CCN(C(=O)c5n[nH]c(=O)[nH]5)CC4)c(=O)n3n2)CC1 [Example 8, 2-(2-(4-acetylpiperazin-1-yl)-5-methyl-7-oxo-6-(4-(5-oxo-4,5-dihydro-1H-1,2,4-triazole-3-carbonyl)piperazin-1-yl)-[1,2,4]triazolo[1,5-a]pyrimidin-4(7H)-yl)-N-(4-chlorophenyl)acetamide] | 0.05 | > 10
CC(=O)N1CCN(c2c(C)n(CC(=O)Nc3ccc(C(F)(F)F)cc3)c3nc(C4=CCC5(CCO5)CC4)nn3c2=O)CC1 (stereo not drawn) [Example 117, 2-(6-(4-acetylpiperazin-1-yl)-5-methyl-7-oxo-2-(1-oxaspiro[3.5]non-6-en-7-yl)-[1,2,4]triazolo[1,5-a]pyrimidin-4(7H)-yl)-N-(4-(trifluoromethyl)phenyl)acetamide] | 0.6 | > 10
CC(=O)N1CCN(c2nc3n(CC(=O)Nc4ccc(Cl)cc4)c(C)c(N4CCN(C(=O)c5[nH]c(=O)[nH]c(=O)c5N)CC4)c(=O)n3n2)CC1 [Example 10, 2-(2-(4-acetylpiperazin-1-yl)-6-(4-(5-amino-2,6-dioxo-1,2,3,6-tetrahydropyrimidine-4-carbonyl)piperazin-1-yl)-5-methyl-7-oxo-[1,2,4]triazolo[1,5-a]pyrimidin-4(7H)-yl)-N-(4-chlorophenyl)acetamide] | 0.09 | > 10
CC(=O)N1CCN(c2c(C)n(CC(=O)Nc3ccc(Cl)c(Cl)c3)c3nc(C4=CCN(C(=O)OC5CC/C=C/CCC5)CC4)nn3c2=O)CC1 (stereo not drawn) [Example 93, (E)-cyclooct-4-en-1-yl 4-(6-(4-acetylpiperazin-1-yl)-4-(2-((3,4-dichlorophenyl)amino)-2-oxoethyl)-5-methyl-7-oxo-4,7-dihydro-[1,2,4]triazolo[1,5-a]pyrimidin-2-yl)-3,6-dihydropyridine-1(2H)-carboxylate] | 0.7 | 5
CC(=O)N1CCN(c2c(C)n(CC(=O)Nc3ccc(Cl)c(C(F)(F)F)c3)c3nc(C4=CCN(C(=O)OC(C)(C)C)CC4)nn3c2=O)CC1 [Example 74, tert-butyl 4-(6-(4-acetylpiperazin-1-yl)-4-(2-((4-chloro-3-(trifluoromethyl)phenyl)amino)-2-oxoethyl)-5-methyl-7-oxo-4,7-dihydro-[1,2,4]triazolo[1,5-a]pyrimidin-2-yl)-5,6-dihydropyridine-1(2H)-carboxylate] | 0.2 | 0.6
CC(=O)N1CCC(c2c(C)n(CC(=O)Nc3ccc(C(F)(F)F)cc3)c3nc(-c4ccccc4)nn3c2=O)CC1 [Example 143, 2-(6-(1-acetylpiperidin-4-yl)-5-methyl-7-oxo-2-phenyl-[1,2,4]triazolo[1,5-a]pyrimidin-4(7H)-yl)-N-(4-(trifluoromethyl)phenyl) acetamide] | – | > 10
